Experimental data as given in patent publication US9936701B2, “Herbicidal compounds” (Syngenta Participations AG, priority 2013, dated 2018).

How the values were obtained:
[1] = tested on: a variety of test species; assay: Pre-emergence herbicidal activity (glasshouse, sprayed one day after sowing, evaluated after 13 days); format: in vivo; set-up: key: 5=total damage to plant; 0=no damage to plant; details: application pre-emergence, rate 1000 g/Ha, scale 0-5
Procedure: Seeds of a variety of test species were sown in standard soil in pots. After cultivation for one day (pre-emergence) under controlled conditions in a glasshouse (at 24/16° C., day/night; 14 hours light; 65% humidity), the plants were sprayed with an aqueous spray solution derived from the formulation of the technical active ingredient in acetone/water (50:50) solution containing 0.5% Tween 20 (polyoxyethelyene sorbitan monolaurate, CAS RN 9005-64-5). The test plants were then grown in a glasshouse under controlled conditions (at 24/16° C., day/night; 14 hours light; 65% humidity) and watered twice daily. After 13 days, the test was evaluated (5=total damage to plant; 0=no damage to plant).

[2] = tested on: a variety of test species; assay: Post-emergence herbicidal activity (glasshouse, sprayed after 8 days cultivation, evaluated after 13 days); format: in vivo; set-up: key: 5=total damage to plant; 0=no damage to plant; details: rate 1000 g/Ha, scale 0-5
Procedure: Seeds of a variety of test species were sown in standard soil in pots. After 8 days cultivation (post-emergence) under controlled conditions in a glasshouse (at 24/16° C., day/night; 14 hours light; 65% humidity), the plants were sprayed with an aqueous spray solution derived from the formulation of the technical active ingredient in acetone/water (50:50) solution containing 0.5% Tween 20 (polyoxyethelyene sorbitan monolaurate, CAS RN 9005-64-5). The test plants were then grown in a glasshouse under controlled conditions (at 24/16° C., day/night; 14 hours light; 65% humidity) and watered twice daily. After 13 days, the test was evaluated (5=total damage to plant; 0=no damage to plant).

CCOc1cc(N2C(=O)C(Cl)=C(C)C2O)no1 (stereo not drawn) [A32]
1: Pre-emergence herbicidal damage score, AMARE [1] | Pre-emergence herbicidal damage score, SETFA [1] | Pre-emergence herbicidal damage score, ZEAMX [1]
3: Pre-emergence herbicidal damage score, ECHCG [1]
2: Pre-emergence herbicidal damage score, ALOMY [1] | ALOMY (Alopecurus myosuroides) damage score, application post-emergence [2] | AMARE (Amaranthus retroflexus) damage score, application post-emergence [2] | SETFA (Setaria faberi) damage score, application post-emergence [2] | ZEAMX (Zea mays) damage score, application post-emergence [2]
4: Pre-emergence herbicidal damage score, ABUTH [1]
5: ABUTH (Abutilon theophrasti) damage score, application post-emergence [2] | ECHCG (Echinochloa crus-galli) damage score, application post-emergence [2]

CCC(C)(CC#N)c1cc(N2C(=O)C(Cl)=C(C)C2O)no1 (stereo not drawn) [A59]
5: Pre-emergence herbicidal damage score, ABUTH [1] | Pre-emergence herbicidal damage score, ALOMY [1] | Pre-emergence herbicidal damage score, AMARE [1] | Pre-emergence herbicidal damage score, ECHCG [1] | Pre-emergence herbicidal damage score, SETFA [1] | Pre-emergence herbicidal damage score, ZEAMX [1] | ABUTH (Abutilon theophrasti) damage score, application post-emergence [2] | ALOMY (Alopecurus myosuroides) damage score, application post-emergence [2] | AMARE (Amaranthus retroflexus) damage score, application post-emergence [2] | ECHCG (Echinochloa crus-galli) damage score, application post-emergence [2] | SETFA (Setaria faberi) damage score, application post-emergence [2] | ZEAMX (Zea mays) damage score, application post-emergence [2]

CCCC1=C(Cl)C(=O)N(c2noc(C(C)C)c2C#N)C1O (stereo not drawn) [A69]
2: Pre-emergence herbicidal damage score, AMARE [1] | ALOMY (Alopecurus myosuroides) damage score, application post-emergence [2]
0: Pre-emergence herbicidal damage score, ABUTH [1] | Pre-emergence herbicidal damage score, ALOMY [1] | Pre-emergence herbicidal damage score, ZEAMX [1]
4: ABUTH (Abutilon theophrasti) damage score, application post-emergence [2]
5: AMARE (Amaranthus retroflexus) damage score, application post-emergence [2] | ECHCG (Echinochloa crus-galli) damage score, application post-emergence [2] | SETFA (Setaria faberi) damage score, application post-emergence [2]
1: Pre-emergence herbicidal damage score, ECHCG [1] | Pre-emergence herbicidal damage score, SETFA [1] | ZEAMX (Zea mays) damage score, application post-emergence [2]

CCCC1=C(Cl)C(=O)N(c2noc(C)c2C#N)C1O (stereo not drawn) [A70]
3: Pre-emergence herbicidal damage score, SETFA [1] | ALOMY (Alopecurus myosuroides) damage score, application post-emergence [2]
0: Pre-emergence herbicidal damage score, ABUTH [1]
4: Pre-emergence herbicidal damage score, ECHCG [1]
1: Pre-emergence herbicidal damage score, ALOMY [1] | Pre-emergence herbicidal damage score, ZEAMX [1] | ZEAMX (Zea mays) damage score, application post-emergence [2]
5: Pre-emergence herbicidal damage score, AMARE [1] | AMARE (Amaranthus retroflexus) damage score, application post-emergence [2] | ECHCG (Echinochloa crus-galli) damage score, application post-emergence [2] | SETFA (Setaria faberi) damage score, application post-emergence [2]
2: ABUTH (Abutilon theophrasti) damage score, application post-emergence [2]

CCCC1=C(Br)C(=O)N(c2noc(C(C)(C)C#N)c2C#N)C1OC(=O)CC (stereo not drawn) [A74]
5: Pre-emergence herbicidal damage score, ABUTH [1] | Pre-emergence herbicidal damage score, AMARE [1] | Pre-emergence herbicidal damage score, ECHCG [1] | Pre-emergence herbicidal damage score, SETFA [1] | ABUTH (Abutilon theophrasti) damage score, application post-emergence [2] | ALOMY (Alopecurus myosuroides) damage score, application post-emergence [2] | AMARE (Amaranthus retroflexus) damage score, application post-emergence [2] | ECHCG (Echinochloa crus-galli) damage score, application post-emergence [2] | SETFA (Setaria faberi) damage score, application post-emergence [2] | ZEAMX (Zea mays) damage score, application post-emergence [2]
4: Pre-emergence herbicidal damage score, ALOMY [1] | Pre-emergence herbicidal damage score, ZEAMX [1]

CC(=O)OC1C(C)=C(Cl)C(=O)N1c1cc(C(C)(C)C)on1 (stereo not drawn) [A75]
4: Pre-emergence herbicidal damage score, ALOMY [1] | Pre-emergence herbicidal damage score, ECHCG [1] | Pre-emergence herbicidal damage score, SETFA [1]
3: Pre-emergence herbicidal damage score, ZEAMX [1]
5: Pre-emergence herbicidal damage score, ABUTH [1] | Pre-emergence herbicidal damage score, AMARE [1] | ABUTH (Abutilon theophrasti) damage score, application post-emergence [2] | ALOMY (Alopecurus myosuroides) damage score, application post-emergence [2] | AMARE (Amaranthus retroflexus) damage score, application post-emergence [2] | ECHCG (Echinochloa crus-galli) damage score, application post-emergence [2] | SETFA (Setaria faberi) damage score, application post-emergence [2] | ZEAMX (Zea mays) damage score, application post-emergence [2]
